This note sets out measurements from BindingDB's records for doi:10.1111/cbdd.12016 (Peking University Health Science Center, 2012).

A word on the IC50: it is the midpoint of a concentration-inhibition curve. A high value points to lower potency.

The target of this test is Beta-secretase 1 (Homo sapiens, UniProt P56817). Briefly: Fluorescence Resonance Energy Transfer (FRET) Assay. Here is the method: BACE1 inhibitory evaluation was carried out using a Fluorescence Resonance Energy Transfer (FRET) assay kit supplied by PanVera (kit P2985, Madison, WI, USA).
Chain of Beta-secretase 1 (P56817 whole entry): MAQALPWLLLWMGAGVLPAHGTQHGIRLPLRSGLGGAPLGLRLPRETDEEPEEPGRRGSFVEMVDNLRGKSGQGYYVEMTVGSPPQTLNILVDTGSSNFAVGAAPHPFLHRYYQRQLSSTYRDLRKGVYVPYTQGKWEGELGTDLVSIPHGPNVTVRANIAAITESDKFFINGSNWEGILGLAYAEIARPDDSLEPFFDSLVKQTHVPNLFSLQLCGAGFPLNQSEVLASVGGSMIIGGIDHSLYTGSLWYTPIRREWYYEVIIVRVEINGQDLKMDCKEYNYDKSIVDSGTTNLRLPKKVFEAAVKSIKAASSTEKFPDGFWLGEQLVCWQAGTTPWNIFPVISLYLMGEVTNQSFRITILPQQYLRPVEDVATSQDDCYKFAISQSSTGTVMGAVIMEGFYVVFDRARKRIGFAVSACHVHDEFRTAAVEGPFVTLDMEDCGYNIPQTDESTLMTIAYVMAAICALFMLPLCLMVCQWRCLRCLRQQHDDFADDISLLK
Molecule `CCCOc1cccc(-c2cc(Oc3ccccc3)cc(C(=N)N)c2)c1` [Benzimidamide, 6a] returned a 50% inhibitory concentration (IC50) of 8.02 µM.

Consider `CCCCOc1cccc(-c2cc(Oc3ccccc3)cc(C(=N)N)c2)c1` [Benzimidamide, 6b], for which 7.03 µM corresponded to half-maximal inhibition (IC50). This IC50 and that of the molecule before are within 1.5-fold of each other. The result for `CCCOc1cccc(-c2cc(Oc3ccccc3F)cc(C(=N)N)c2)c1` [Benzimidamide, 6c] reads 4.36 µM; that for `CCCCOc1cccc(-c2cc(Oc3ccccc3F)cc(C(=N)N)c2)c1` [Benzimidamide, 6d], 3.35 µM; that for `CCCOc1cccc(-c2cc(C#N)cc(Oc3ccccc3F)c2)c1` [Benzonitrile, 5c], 80.3 µM. The result for `CCCCOc1cccc(-c2cc(C#N)cc(Oc3ccccc3F)c2)c1` [Benzonitrile, 5d] reads 9.35 µM.
